Patent publication US20230293518A1 (Edgewise Therapeutics, Inc., priority 2020, published 2023)

What follows are compounds tested against skeletal myofibrils (myosin ATPase) (assay: Skeletal Myofibril ATPase Assay). Conditions: Table 4A.
Format: biochemical
Protocol: Example 12. Skeletal Myofibril ATPase Assay
Overview: Myosin ATPase activity is assessed by using a coupled reaction system, in which ADP generated by the myosin ATPase function is coupled to the disappearance of NADH through the pyruvate kinase/lactate dehydrogenase (PK-LDH) system. ATPase activity produces ADP, which is used as a substrate for PK to produce pyruvate and regenerate ATP. The pyruvate is then used as a substrate by LDH to oxidize NADH to NAD+. The rate of the reaction is monitored through the time-dependent disappearance of NADH using absorbance at 340 nm. Inhibition of ATPase activity by the assayed compounds is indicated by a reduced rate of NADH loss, relative to vehicle-treated controls, over the experimental time window. To assess the selectivity of the assayed compounds for skeletal myofibrils, the compounds are counter-screened in cardiac myofibrils.
Materials: The following stock solutions and reagents were used in the Skeletal Myofibril ATPase Assay:
Stock Solutions of pCa buffer. Combine PIPES, CaCl2, and EGTA solutions with 70 mL of water. Adjust pH to 7.0 and bring final volume to 100 mL.
Buffer A & Buffer B. Buffers were stored on ice until use.
Skeletal Myofibril ATPase Assay Procedure: BSA, ATP, NADH, PEP, and DTT solutions were thawed at room temperature, then transferred to ice. Pellet-frozen myofibrils were transferred with approximately twice the required volume into a sufficiently large tube and capped. Myofibrils were thawed by rolling in a water bath for approximately 15 min at room temperature and cooled on ice. Buffers A and B were prepared by adjusting volumes as necessary for required number of wells and stored on ice. 0.5 μL of the compounds to be assayed were added into wells. 25 μL of Buffer A was dispensed into the wells, followed by 25 μL of Buffer B. The wells were measured for absorbance at 340 nm, using a kinetic protocol in which the wells are read every 1.5-2 min for 45 min. The slope of the data was approximated by subtracting the minimum absorbance value from the maximum value for each well. This was accomplished either in the SoftMax Pro software or in a spreadsheet program such as Excel. Using GraphPad Prism 8.0, the data was normalized by assigning a value of 100% to the 1% DMSO vehicle wells. Typically, a normalized 0% value was simply assigned to a (Max−Min) value of 0. The normalized data was fit to a Four Parameter Logistic sigmoidal equation, constraining the bottom to be 0 or greater. Compounds of Table 1, 2, and 3 were tested and results of the assay appear in Tables 4a-4c. A=IC50 is less than or equal to 10 μM; B═IC50 is greater than 10 μM and less than 100 μM; C═IC50 is greater than 100 μM.

| Structure (SMILES) | IC50 [µM] |
| --- | --- |
| O=C(Cn1nc(-c2ccc(OC(F)F)nc2)ccc1=O)NCc1ccccc1Cl [Compound I-69, N-(2-chlorobenzyl)-2-(3-(6-(difluoromethoxy)pyridin-3-yl)-6-oxopyridazin-1(6H)-yl)acetamide] | < 10 |
| O=C(Cn1nc(-c2ccc(OC(F)F)nc2)ccc1=O)NCc1ccc(Cl)cc1 [Compound I-70, N-(4-chlorobenzyl)-2-(3-(6-(difluoromethoxy)pyridin-3-yl)-6-oxopyridazin-1(6H)-yl)acetamide] | < 10 |
| O=C(Cn1nc(-c2cnc(OCC(F)(F)F)nc2)ccc1=O)NC1CCC1 [Compound I-71, N-cyclobutyl-2-(6-oxo-3-(2-(2,2,2-trifluoroethoxy)pyrimidin-5-yl)pyridazin-1(6H)-yl)acetamide] | < 10 |
| O=C(Cn1nc(-c2cnc(OCCOC(F)(F)F)nc2)ccc1=O)NC1CCC1 [Compound I-72, N-cyclobutyl-2-(6-oxo-3-(2-(2-(trifluoromethoxy)ethoxy)pyrimidin-5-yl)pyridazin-1(6H)-yl)acetamide] | < 10 |
| CCCOc1ncc(-c2ccc(=O)n(CC(=O)NC3CCC3)n2)cn1 [Compound I-73, N-cyclobutyl-2-(6-oxo-3-(2-propoxypyrimidin-5-yl)pyridazin-1(6H)-yl)acetamide] | < 10 |
| CCNC(=O)Cn1nc(-c2ccc(NC3CC(F)(F)C3)nc2)ccc1=O [Compound I-74, 2-(3-(6-((3,3-difluorocyclobutyl)amino)pyridin-3-yl)-6-oxopyridazin-1(6H)-yl)-N-ethylacetamide] | 10 to 100 |
| CCNC(=O)Cn1nc(-c2ccc(OC3CC(F)(F)C3)nc2)ccc1=O [Compound I-75, 2-(3-(6-(3,3-difluorocyclobutoxy)pyridin-3-yl)-6-oxopyridazin-1(6H)-yl)-N-ethylacetamide] | 10 to 100 |
| O=C(Cn1nc(-c2ccc(OC(F)F)nc2)ccc1=O)NCc1cccc(Cl)c1 [Compound I-76, N-(3-chlorobenzyl)-2-(3-(6-(difluoromethoxy)pyridin-3-yl)-6-oxopyridazin-1(6H)-yl)acetamide] | 10 to 100 |
| CCNC(=O)Cn1nc(-c2cnc(OCC3CC(F)(F)C3)nc2)ccc1=O [Compound I-77, 2-(3-(2-((3,3-difluorocyclobutyl)methoxy)pyrimidin-5-yl)-6-oxopyridazin-1(6H)-yl)-N-ethylacetamide] | 10 to 100 |
| CCNC(=O)Cn1nc(-c2cnc(Oc3ccc(Cl)cc3)nc2)ccc1=O [Compound I-78, 2-(3-(2-(4-chlorophenoxy)pyrimidin-5-yl)-6-oxopyridazin-1(6H)-yl)-N-ethylacetamide] | 10 to 100 |
| CC(C)COc1ncc(-c2ccc(=O)n(CC(=O)NC3CCC3)n2)cn1 [Compound I-79, N-cyclobutyl-2-[3-[2-(2-methylpropoxy)pyrimidin-5-yl]-6-oxopyridazin-1-yl]acetamide] | > 100 |

Same assay, conditions: Table 4B

| Structure (SMILES) | IC50 [µM] |
| --- | --- |
| CCNC(=O)Cn1nc(-c2ccc(OC(C)(F)F)cc2)ccc1=O [II-1, 2-(3-(4-(1,1-difluoroethoxy)phenyl)-6-oxopyridazin-1(6H)-yl)-N-ethylacetamide] | < 10 |
| CCNC(=O)Cn1nc(-c2ccc(NC(C)=O)cc2)ccc1=O [II-2, 2-(3-(4-acetamidophenyl)-6-oxopyridazin-1(6H)-yl)-N-ethylacetamide] | < 10 |
| O=C(Cn1nc(-c2ccc(OC(F)F)cc2)ccc1=O)NCc1ccccc1Cl [II-3, N-(2-chlorobenzyl)-2-(3-(4-(difluoromethoxy)phenyl)-6-oxopyridazin-1(6H)-yl)acetamide] | < 10 |
| CC(C)NC(=O)Cn1nc(-c2ccc(OC(F)(F)F)cc2)ccc1=O [II-4, N-isopropyl-2-(6-oxo-3-(4-(trifluoromethoxy)phenyl)pyridazin-1(6H)-yl)acetamide] | < 10 |
| CCNC(=O)Cn1nc(-c2ccc(OC(F)(F)F)cc2)ccc1=O [II-5, N-ethyl-2-(6-oxo-3-(4-(trifluoromethoxy)phenyl)pyridazin-1(6H)-yl)acetamide] | < 10 |
| CCNC(=O)Cn1nc(-c2ccc(OCC(F)(F)F)cc2)ccc1=O [II-6, N-ethyl-2-(6-oxo-3-(4-(2,2,2-trifluoroethoxy)phenyl)pyridazin-1(6H)-yl)acetamide] | < 10 |
| CCNC(=O)Cn1nc(-c2ccc(OCC(F)F)cc2)ccc1=O [II-7, 2-(3-(4-(2,2-difluoroethoxy)phenyl)-6-oxopyridazin-1(6H)-yl)-N-ethylacetamide] | < 10 |
| CC(=O)Nc1ccc(-c2ccc(=O)n(CC(=O)NCc3ccccc3Cl)n2)cc1 [II-8, 2-(3-(4-acetamidophenyl)-6-oxopyridazin-1(6H)-yl)-N-(2-chlorobenzyl) acetamide] | < 10 |
| O=C(Cn1nc(-c2ccc(OC(F)F)cc2)ccc1=O)NC1CCC1 [II-9, N-cyclobutyl-2-(3-(4-(difluoromethoxy)phenyl)-6-oxopyridazin-1(6H)-yl)acetamide] | < 10 |
| CCNC(=O)Cn1nc(-c2ccc(OC(F)F)cc2)ccc1=O [II-10, 2-(3-(4-(difluoromethoxy)phenyl)-6-oxopyridazin-1(6H)-yl)-N-ethylacetamide] | < 10 |
| O=C(Cn1nc(-c2ccc(OC(F)F)cc2)ccc1=O)NCC(F)(F)F [II-11, 2-(3-(4-(difluoromethoxy)phenyl)-6-oxopyridazin-1(6H)-yl)-N-(2,2,2-trifluoroethyl) acetamide] | 10 to 100 |
| CCCNC(=O)Cn1nc(-c2ccc(OC(F)F)cc2)ccc1=O [II-12, 2-(3-(4-(difluoromethoxy)phenyl)-6-oxopyridazin-1(6H)-yl)-N-propylacetamide] | 10 to 100 |
| CC(C)CNC(=O)Cn1nc(-c2ccc(OC(F)F)cc2)ccc1=O [II-13, 2-(3-(4-(difluoromethoxy)phenyl)-6-oxopyridazin-1(6H)-yl)-N-isobutylacetamide] | 10 to 100 |
| CC(=O)Nc1ccc(-c2ccc(=O)n(CC(=O)NC(C)C)n2)cc1 [II-14, 2-(3-(4-acetamidophenyl)-6-oxopyridazin-1(6H)-yl)-N-isopropylacetamide] | 10 to 100 |
| O=C(Cn1nc(-c2ccc(OC(F)F)cc2)ccc1=O)NCC(F)F [II-15, N-(2,2-difluoroethyl)-2-(3-(4-(difluoromethoxy)phenyl)-6-oxopyridazin-1(6H)-yl)acetamide] | 10 to 100 |
| CC(C)(C)NC(=O)Cn1nc(-c2ccc(OC(F)F)cc2)ccc1=O [II-16, N-(tert-butyl)-2-(3-(4-(difluoromethoxy)phenyl)-6-oxopyridazin-1(6H)-yl)acetamide] | 10 to 100 |
| CCCCNC(=O)Cn1nc(-c2ccc(OC(F)F)cc2)ccc1=O [II-17, N-butyl-2-(3-(4-(difluoromethoxy)phenyl)-6-oxopyridazin-1(6H)-yl)acetamide] | 10 to 100 |
| O=C(Cn1nc(-c2ccc(OC(F)F)cc2)ccc1=O)NCC1CCC1 [II-18, N-(cyclobutylmethyl)-2-(3-(4-(difluoromethoxy)phenyl)-6-oxopyridazin-1(6H)-yl)acetamide] | 10 to 100 |
| CCNC(=O)Cn1nc(-c2ccc(OC(F)F)cc2)c(C)cc1=O [II-19, 2-(3-(4-(difluoromethoxy)phenyl)-4-methyl-6-oxopyridazin-1(6H)-yl)-N-ethylacetamide] | 10 to 100 |
| O=C(Cn1nc(-c2ccc(OCC(F)(F)F)cc2)ccc1=O)NCc1ccc(O)nc1 [II-20, N-((6-hydroxypyridin-3-yl)methyl)-2-(6-oxo-3-(4-(2,2,2-trifluoroethoxy)phenyl)pyridazin-1(6H)-yl)acetamide] | > 100 |
| CCNC(=O)Cn1nc(-c2ccc(OC(F)F)cc2)cc(C)c1=O [II-21, 2-(3-(4-(difluoromethoxy)phenyl)-5-methyl-6-oxopyridazin-1(6H)-yl)-N-ethylacetamide] | > 100 |
| O=C(Cn1nc(-c2ccc(OCC(F)(F)F)cc2)ccc1=O)N1CC(c2ccccc2)C1 [II-22, 2-(2-oxo-2-(3-phenylazetidin-1-yl)ethyl)-6-(4-(2,2,2-trifluoroethoxy)phenyl)pyridazin-3(2H)-one] | < 10 |
| O=C(Cn1nc(-c2ccc(OCC(F)(F)F)cc2)ccc1=O)N1CCC1c1ccccc1 (centres unmarked) [II-23, 2-(2-oxo-2-(2-phenylazetidin-1-yl)ethyl)-6-(4-(2,2,2-trifluoroethoxy)phenyl)pyridazin-3(2H)-one] | < 10 |
| O=C(Cn1nc(-c2ccc(OCC(F)(F)F)cc2)ccc1=O)NCc1ccc(CO)cc1 [II-24, N-(4-(hydroxymethyl)benzyl)-2-(6-oxo-3-(4-(2,2,2-trifluoroethoxy)phenyl)pyridazin-1(6H)-yl)acetamide] | > 100 |
